Measurements taken from PMC9551036, “A selective and orally bioavailable VHL-recruiting PROTAC achieves SMARCA2 degradation in vivo” (Nature Communications, 2022).
Values joined by “and” are separate entries in the source; they are usually repeats but may differ in a detail not shown here. Equal entries are not always repeated. Where two headings read alike, the source gives them in different places.

Tests used:
Caco-2 cell monolayer = test: Bidirectional permeability measurement in Caco-2 cells; format: in vitro ADME; conditions: for Caco-2 Pba: Caco-2, b to a; for Modified Caco-2 Pab + PGPi (Zosuquidar): Modified Caco-2, a to b; for Modified Caco-2 Pba / Modified Caco-2 Pba + PGPi (Zosuquidar): Modified Caco-2, b to a
Method: Bidirectional permeability of test compounds across a Caco-2 cell monolayer was measured as described[43] with a modification of preincubation time[44]: Briefly, Caco-2 cells were seeded onto Transwell inserts (#3379, Corning, Wiesbaden, Germany) at a density of 160000 cells/cm^2 and cultured in DMEM (high glucose) containing 10% fetal bovine serum for 14–21 days. Cells were incubated with culture media containing 1 µM test compound for 24 h. […] Samples were taken at different time points for up to 2 h. Test compound in the samples was quantified with LC-MS/MS. To elucidate the role of drug transporter P-gp in the transcellular transport, permeability measurement was performed in the absence and presence of the selective P-gp inhibitor zosuquidar (5 µM final concentration). Apparent permeability coefficients (Papp,AB, Papp,BA) were calculated as follows:1 Papp,AB=Q_AB/C0×s×t 2 Papp,BA=Q_BA/C0×s×t where Q is the amount of compound recovered in the receiver compartment after the incubation time t, C0 the initial compound concentration given to the donor compartment, and s the surface area of the Transwell inserts. Efflux ratio is calculated as the quotient of Papp,BA (mean of duplicate) to Papp,AB (mean of duplicate). […] In addition, Transepithelial electrical resistance (TEER) values were measured for each plate before the permeability assay. All three parameters (efflux of the reference substrates, Papp values of the low permeable compound, and TEER values) were used to ensure the quality of the assays.

[1] = target: VCB: PROTAC: SMARCA4^BD ternary complex (Homo sapiens, UniProt P40337+P51532); test: TR-FRET ternary complex affinity and cooperativity, SMARCA4; format: binding; set-up: P51532, residues 1448–1569 with additional N-terminal SM residues; GST (TEV site) (N); His6 (TEV site) (N, cleaved yes); made in house; host or cells: SMARCA4^BD: Escherichia coli BL21(DE3)
SMARCA2 = SMARCA2 (Homo sapiens, UniProt P51531); test: SMARCA2 capillary electrophoresis protein assay in RKO cells; format: cell-based; set-up: endogenous in cells; host or cells: RKO, NCI-H1568, A549, HCT116, LU99, HCC-364, HCT-15, HCC4006, SK-N-AS; conditions: for DC50 / Dmax: mean ± SD; for Dmax: RKO
Method: 130,000–200,000 cells were seeded in 24-well plates and incubated until settled down or overnight. Compounds were dissolved in DMSO and added to cells in indicated concentrations using a digital dispenser following an optional media change. […] For SMARCA2/4 half-life determination, 150,000 or 200,000 cells were seeded in 24-well plates. […] For SMARCA2/4 re-synthesis measurements, 200,000 cells were seeded in 24-well plates. […] Medium was removed, cells were washed with PBS and lysed with 80 µl Lysis Buffer (MSD Tris Lysis Buffer (#R60TX-2) + Halt Inhibitor Cocktail (100x) + Benzonase 0.5 µL/ml). Samples were frozen at −80 °C and thawed at room temperature before use. Samples were transferred to a V-bottom plate and insoluble debris was pelleted by centrifugation for 5 min at maximum speed. The supernatant was transferred to a fresh plate. Master Mix and Ladder were prepared according to manufacturer’s instructions for 12–230 kDa Wes Separation Module, 8 × 25 capillary cartridges, Protein Simple #SM-W004 with Anti-Rabbit Detection Module for Wes, Peggy Sue or Sally Sue, Protein Simple #DM-001. 4.8 µl lysate were mixed with 1.2 µl Master Mix to achieve a protein concentration of ~0.5 µg/µl. […] Wes plates were prepared and run according to manufacturer’s instructions. Proteins were quantified with accompanying Compass Software. SMARCA2/4 protein levels were normalised to GAPDH. […] Where applicable, curves were fitted using a 4-parametric logistic model.

[2] = target: VCB: PROTAC: SMARCA2^BD ternary complex (Homo sapiens, UniProt P40337+P51531); test: TR-FRET ternary complex affinity and cooperativity, SMARCA2; format: binding; set-up: P51531-2, residues 1373-1493 with additional N-terminal SM residues; GST (TEV site) (N); His6 (TEV site) (N, cleaved yes); made in house; host or cells: SMARCA2^BD: Escherichia coli BL21(DE3)
[3] = target: T1, (Homo sapiens, UniProt P51532); test: TR-FRET ternary complex affinity and cooperativity, SMARCA4; format: binding
T1 construct: P51532, residues 1448–1569 with additional N-terminal SM residues; GST (TEV site) (N); His6 (TEV site) (N, cleaved yes); made in house; host or cells: SMARCA4^BD: Escherichia coli BL21(DE3)

[4] = PROTAC + VCB, individual replicates, read-out: Ternary SMARCA4 BD EC50 (PROTAC + VCB)
[5] = TR-FRET competition for SMARCA4BD, + VCB, mean ± SD, read-out: TR-FRET Ternary SMARCA4BD EC50 (PROTAC + VCB)
[6] = PROTAC + VCB, individual replicates, read-out: Ternary SMARCA2 BD EC50 (PROTAC + VCB)
[7] = TR-FRET competition for SMARCA2BD, + VCB, mean ± SD, read-out: TR-FRET Ternary SMARCA2BD EC50 (PROTAC + VCB)
[8] = TR-FRET competition for SMARCA4BD, without VCB, mean ± SD, read-out: TR-FRET SMARCA4BD EC50
[9] = binary, PROTAC alone, individual replicates, read-out: SMARCA4 BD EC50

VCB: PROTAC: SMARCA2^BD ternary complex, sequence (P51531 with tags, fused parts or gaps isoform P51531-2): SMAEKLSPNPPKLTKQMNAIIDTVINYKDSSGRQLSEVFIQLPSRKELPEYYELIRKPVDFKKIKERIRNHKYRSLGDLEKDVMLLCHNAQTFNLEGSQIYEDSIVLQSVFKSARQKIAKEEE
VCB: PROTAC: SMARCA2^BD ternary complex, sequence (P40337 54-213): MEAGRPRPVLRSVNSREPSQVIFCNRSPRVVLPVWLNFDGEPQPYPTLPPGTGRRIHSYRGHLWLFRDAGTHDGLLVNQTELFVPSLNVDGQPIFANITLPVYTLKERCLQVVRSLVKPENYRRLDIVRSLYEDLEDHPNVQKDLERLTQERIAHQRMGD
VCB: PROTAC: SMARCA2^BD ternary complex, sequence (Q15369 17-112 partner): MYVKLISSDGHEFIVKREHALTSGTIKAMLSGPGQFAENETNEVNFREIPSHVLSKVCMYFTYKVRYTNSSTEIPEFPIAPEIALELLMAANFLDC
VCB: PROTAC: SMARCA2^BD ternary complex, sequence (Q15370 1-104 partner): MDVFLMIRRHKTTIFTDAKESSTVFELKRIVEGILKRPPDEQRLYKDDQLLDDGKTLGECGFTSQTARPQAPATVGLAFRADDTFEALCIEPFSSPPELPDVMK
SMARCA2, sequence (P51531 whole entry): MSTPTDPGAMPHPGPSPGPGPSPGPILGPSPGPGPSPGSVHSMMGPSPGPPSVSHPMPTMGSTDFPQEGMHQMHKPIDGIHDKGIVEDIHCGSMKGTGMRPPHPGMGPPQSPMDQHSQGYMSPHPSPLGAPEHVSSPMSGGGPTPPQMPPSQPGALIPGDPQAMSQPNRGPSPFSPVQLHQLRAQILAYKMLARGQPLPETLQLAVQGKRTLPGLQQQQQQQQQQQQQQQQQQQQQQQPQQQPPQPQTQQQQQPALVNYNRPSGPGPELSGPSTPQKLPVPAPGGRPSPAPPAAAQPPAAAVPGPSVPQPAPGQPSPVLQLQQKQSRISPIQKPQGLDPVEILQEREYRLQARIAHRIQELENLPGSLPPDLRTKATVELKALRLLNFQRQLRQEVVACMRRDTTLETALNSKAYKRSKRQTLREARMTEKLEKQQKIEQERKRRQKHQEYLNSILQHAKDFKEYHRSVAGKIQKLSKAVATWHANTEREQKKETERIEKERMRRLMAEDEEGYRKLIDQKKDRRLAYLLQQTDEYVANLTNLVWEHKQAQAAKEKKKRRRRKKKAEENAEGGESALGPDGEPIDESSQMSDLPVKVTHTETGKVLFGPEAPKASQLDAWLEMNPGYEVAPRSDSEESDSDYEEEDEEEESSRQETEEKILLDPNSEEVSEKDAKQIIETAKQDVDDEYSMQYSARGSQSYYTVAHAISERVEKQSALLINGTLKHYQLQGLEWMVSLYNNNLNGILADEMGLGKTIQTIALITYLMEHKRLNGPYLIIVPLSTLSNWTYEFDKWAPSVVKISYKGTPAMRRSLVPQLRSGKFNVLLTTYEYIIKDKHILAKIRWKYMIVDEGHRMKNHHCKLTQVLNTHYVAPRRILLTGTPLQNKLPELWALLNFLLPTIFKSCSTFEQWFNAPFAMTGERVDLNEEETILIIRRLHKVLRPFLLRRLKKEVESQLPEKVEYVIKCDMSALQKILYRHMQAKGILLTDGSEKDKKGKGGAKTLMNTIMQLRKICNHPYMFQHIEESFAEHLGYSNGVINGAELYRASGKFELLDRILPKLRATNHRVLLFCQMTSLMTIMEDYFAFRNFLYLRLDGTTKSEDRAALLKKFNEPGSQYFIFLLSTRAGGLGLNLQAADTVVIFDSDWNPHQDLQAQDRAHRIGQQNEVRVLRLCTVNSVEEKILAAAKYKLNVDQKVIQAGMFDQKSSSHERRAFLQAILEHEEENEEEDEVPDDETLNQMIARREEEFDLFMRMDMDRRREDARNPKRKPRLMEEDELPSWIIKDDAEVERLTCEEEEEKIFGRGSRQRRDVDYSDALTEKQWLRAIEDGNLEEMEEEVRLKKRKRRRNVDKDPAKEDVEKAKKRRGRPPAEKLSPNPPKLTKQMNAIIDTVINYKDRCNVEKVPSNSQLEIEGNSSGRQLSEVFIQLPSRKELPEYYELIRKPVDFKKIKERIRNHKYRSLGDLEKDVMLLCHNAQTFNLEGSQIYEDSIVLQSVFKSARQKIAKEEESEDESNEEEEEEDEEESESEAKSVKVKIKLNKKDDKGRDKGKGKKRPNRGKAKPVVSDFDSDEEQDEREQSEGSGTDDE
T1 sequence (P51532 1448-1569): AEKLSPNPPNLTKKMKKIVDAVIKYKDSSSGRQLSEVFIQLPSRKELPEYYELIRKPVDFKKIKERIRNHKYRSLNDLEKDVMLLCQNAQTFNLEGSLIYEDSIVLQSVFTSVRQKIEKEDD
VCB: PROTAC: SMARCA4^BD ternary complex, sequence (P51532 1448-1569): as above
VCB: PROTAC: SMARCA4^BD ternary complex, sequence (P40337 54-213): as the sequence (P40337 54-213) above
VCB: PROTAC: SMARCA4^BD ternary complex, sequence (Q15369 17-112 partner): as the sequence (Q15369 17-112 partner) above
VCB: PROTAC: SMARCA4^BD ternary complex, sequence (Q15370 1-104 partner): as the sequence (Q15370 1-104 partner) above

Row | Structure (SMILES) | Caco-2 Efflux ratio (Caco-2 cell monolayer; Caco-2) | Caco-2 Pab (Caco-2 cell monolayer; Caco-2, a to b) | EC50 [1, 4] | EC50 [1, 5] | DC50 (SMARCA2; RKO (4 h)) | DC50 (SMARCA2; RKO (18 h)) | EC50 [2, 6] | EC50 [2, 7] | EC50 [3, 8] | EC50 [3, 9] | Caco-2 Pba (Caco-2 cell monolayer) | Modified Caco-2 Efflux ratio (Caco-2 cell monolayer) | Modified Caco-2 Pab + PGPi (Zosuquidar) (Caco-2 cell monolayer) | Modified Caco-2 Pba (Caco-2 cell monolayer) | Modified Caco-2 Pba + PGPi (Zosuquidar) (Caco-2 cell monolayer) | Dmax (SMARCA2; RKO (4 h)) | Dmax (SMARCA2; RKO (18 h)) | Caco-2 Pab (Caco-2 cell monolayer; Caco-2) | other results
1 | CN1CCC(c2ccc3c(c2)n(C2CCCC2)c2nc(=O)c4c(Br)cccc4n32)CC1 [compound 3] | 0.8 | 2.83e-05 cm/s | 101 nM and 109 nM (2×) and 108 nM and 118 nM (2×) and 103 nM and 112 nM and 115 nM (2×) and 104 nM and 76.8 nM and 91.4 nM and 77.5 nM and 72.4 nM and 95.9 nM and 122 nM and 90.9 nM and 83.6 nM and 106 nM and 89.9 nM and 93.4 nM (2×) and 86.9 nM and 97.7 nM and 84.8 nM and 184 nM and 180 nM and 117 nM and 86 nM and 87.9 nM and 87.4 nM and 189 nM and 202 nM and 148 nM and 124 nM and 121 nM and 136 nM and 97.4 nM and 130 nM and 99.2 nM and 105 nM and 102 nM | 108 ± 30 nM | > 25000 nM | 22300 nM | 47 nM (2×) and 96.4 nM and 69.7 nM and 57.6 nM and 57.7 nM and 58.1 nM and 59.4 nM (2×) and 54.3 nM and 59.7 nM and 63.5 nM (2×) and 58 nM and 45.7 nM (2×) and 61 nM and 62.5 nM and 63 nM and 66 nM and 76.9 nM and 76.2 nM and 50.2 nM (2×) and 85.7 nM and 89.5 nM and 39.5 nM and 43.8 nM and 41.8 nM (2×) and 41.3 nM and 35.6 nM and 36.2 nM (2×) and 55 nM (2×) and 47.9 nM and 37.4 nM and 47.3 nM and 34.2 nM and 38 nM and 43.3 nM and 32.2 nM and 42.1 nM and 43.2 nM and 39.4 nM and 37.7 nM and 41.7 nM (2×) and 32.6 nM and 30.6 nM and 34.7 nM and 32.9 nM and 43.9 nM and 57.4 nM and 44.7 nM and 46.2 nM (5×) and 47.6 nM (2×) and 48.7 nM (3×) and 51.6 nM and 50.9 nM and 44.2 nM and 41.9 nM and 46.5 nM and 46.1 nM (2×) and 48.5 nM and 51.2 nM and 50.5 nM and 49.4 nM and 51.5 nM and 52.8 nM and 52.3 nM and 53.6 nM and 53.3 nM and 52.1 nM (2×) and 54.8 nM (2×) and 53.5 nM (2×) and 45.5 nM and 46.3 nM and 53.7 nM and 51.7 nM and 68.5 nM and 52.7 nM and 51.8 nM and 46.9 nM and 45.4 nM and 45.9 nM and 46.6 nM and 42.5 nM and 55.4 nM and 86.5 nM and 52.6 nM and 56.7 nM and 66.2 nM and 63.7 nM and 65.2 nM and 64.5 nM and 64.2 nM and 64.6 nM and 52.2 nM and 55.3 nM (2×) and 96.6 nM and 109 nM and 107 nM and 55.1 nM and 53 nM and 33.2 nM and 32.3 nM and 23.5 nM and 31.2 nM and 34 nM and 96.8 nM and 36 nM and 36.8 nM and 35.3 nM and 36.1 nM and 36.6 nM and 42.7 nM and 44.4 nM (2×) and 78.2 nM and 158 nM and 48.4 nM and 54 nM and 57.8 nM and 53.1 nM and 58.7 nM | 48 ± 17 nM | 107 ± 29 nM | 95.4 nM and 105 nM and 124 nM and 115 nM and 117 nM and 113 nM (3×) and 121 nM and 114 nM and 81.2 nM and 90.5 nM and 95.1 nM and 82.4 nM and 86.5 nM and 90.1 nM and 86 nM and 90.3 nM (2×) and 78 nM and 69.2 nM and 191 nM and 161 nM and 107 nM and 99.4 nM and 89 nM and 90.2 nM and 81.3 nM and 182 nM and 188 nM and 131 nM and 128 nM and 126 nM and 132 nM and 94.7 nM and 129 nM and 86.8 nM and 102 nM and 109 nM and 112 nM | – | – | – | – | – | – | – | – | –
2 | Cc1ncsc1-c1ccc([C@H](COC(C)CN2CCC(c3ccc4c(c3)n(C3CCCC3)c3nc(=O)c5c(Br)cccc5n43)CC2)NC(=O)[C@@H]2C[C@@H](O)CN2C(=O)[C@@H](NC(=O)C2(F)CC2)C(C)(C)C)cc1 (some centres unmarked) [compound 9] | – | – | 88.4 nM and 113 nM and 133 nM and 114 nM and 84.3 nM | 105 ± 20 nM | 12 ± 4 nM | 5 ± 1 nM | 20.6 nM and 18 nM and 20.2 nM and 22.8 nM and 25.6 nM and 25.2 nM and 34 nM and 21.7 nM and 14.5 nM and 19.9 nM and 18.7 nM | 21 ± 5 nM | 265 ± 34 nM | 228 nM and 295 nM and 276 nM | 21 ×10⁻⁶ cm/s and 18 ×10⁻⁶ cm/s | 60.000 and 39 ± 21 | 11 ×10⁻⁶ cm/s and 14 ×10⁻⁶ cm/s | 130 ×10⁻⁶ cm/s and 120 ×10⁻⁶ cm/s | 18 ×10⁻⁶ cm/s | 72 ± 7% | 76 ± 10% | – | selectivity for SMARCA2 over SMARCA4 degradation (SMARCA2; Supplementary Data 2): remarkable selectivity
3 | Cc1ncsc1-c1ccc([C@H](COC(C)CN2CCC(c3ccc4c(c3)n(C3CCCC3)c3nc(=O)c5c(Br)cccc5n43)CC2)NC(=O)[C@@H]2C[C@@H](O)CN2C(=O)[C@@H](NC(=O)C2(N(C)C)CC2)C(C)(C)C)cc1 (some centres unmarked) [compound 10] | 5 | – | 69.6 nM and 88.2 nM and 77.2 nM and 49.4 nM | 70 ± 16 nM | 6 ± 3 nM | 3 ± 3 nM | 13.9 nM and 16.3 nM and 16.6 nM and 37.3 nM and 12.6 nM and 9.3 nM and 12.5 nM | 15 ± 9 nM | 191 ± 85 nM | 108 nM and 250 nM and 259 nM | 21 ×10⁻⁶ cm/s | 36 | – | 99 ×10⁻⁶ cm/s and 88 ×10⁻⁶ cm/s | – | 70 ± 2% | 82 ± 5% | 6 10-6 cm/s | –
4 | Cc1ncsc1-c1ccc([C@H](CCCCCN2CCC(c3ccc4c(c3)n(C3CCCC3)c3nc(=O)c5c(Br)cccc5n43)CC2)NC(=O)[C@@H]2C[C@@H](O)CN2C(=O)[C@@H](NC(=O)C2(F)CC2)C(C)(C)C)cc1 [compound 11] | – | – | 65.3 nM and 77.7 nM and 60.4 nM | 67 ± 9 nM | 2 ± 1 nM | 1 ± 0.1 nM | 26.6 nM and 19.7 nM and 14.3 nM and 29.6 nM and 31.9 nM and 31.5 nM and 26.3 nM and 35.9 nM and 20.9 nM and 21.5 nM and 24.4 nM | 25 ± 6 nM | 279 ± 40 nM | 241 nM and 322 nM and 280 nM | – | – | 12 ×10⁻⁶ cm/s and 16 ×10⁻⁶ cm/s and 9 ×10⁻⁶ cm/s and 8.7 ×10⁻⁶ cm/s | – | 19 ×10⁻⁶ cm/s | 73 ± 6% | 87 ± 2% | – | Caco-2 permeability (Caco-2 cell monolayer): improved permeability; efflux ratio (Caco-2 cell monolayer; Caco-2): high efflux ratio; Modified Caco-2 + PGPi (Zosuquidar) Pab (Caco-2 cell monolayer; Modified Caco-2 + PGPi (Zosuquidar)): 11 ± 3 10-6 cm/s; SMARCA2/4 selectivity improvement on linker elongation (compound 11 compared with compound 6) (SMARCA2; all-carbon linker series): two- to threefold
5 | CN1CCN(c2nc(=O)c3c(Cl)cccc3o2)CC1 [compound 13] | 0.606 and 0.6 | 9.26e-05 cm/s | > 10000 nM | – | > 25000 nM | > 25000 nM | > 10000 nM | – | – | > 10000 nM | – | – | – | – | – | – | – | 93 10-6 cm/s | –
